ChEMBL document CHEMBL1156356, “Aromatase inhibitors from Broussonetia papyrifera” (J Nat Prod, 2001)

biological target: T1, Aromatase (Homo sapiens, UniProt P11511); experiment: Inhibition of aromatase from human placental microsomes
T1 sequence (P11511 whole entry): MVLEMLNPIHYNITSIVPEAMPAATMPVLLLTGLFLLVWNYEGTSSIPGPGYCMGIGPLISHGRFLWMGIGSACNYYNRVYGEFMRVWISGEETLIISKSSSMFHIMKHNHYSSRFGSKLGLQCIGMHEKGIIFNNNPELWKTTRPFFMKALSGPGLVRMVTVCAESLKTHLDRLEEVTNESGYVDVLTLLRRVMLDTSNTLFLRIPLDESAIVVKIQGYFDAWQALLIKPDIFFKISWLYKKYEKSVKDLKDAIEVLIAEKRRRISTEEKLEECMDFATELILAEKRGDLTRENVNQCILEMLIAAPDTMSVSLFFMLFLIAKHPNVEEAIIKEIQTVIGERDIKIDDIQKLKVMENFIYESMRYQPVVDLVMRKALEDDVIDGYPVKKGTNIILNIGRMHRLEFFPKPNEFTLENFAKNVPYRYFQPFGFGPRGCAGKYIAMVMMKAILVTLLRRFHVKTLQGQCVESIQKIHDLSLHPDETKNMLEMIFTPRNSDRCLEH

Row | Compound | IC50
1 | COc1c(-c2ccc(O)c(O)c2)oc2cc(O)c(C/C=C(\C)CCC=C(C)C)c(O)c2c1=O | > 88.4 µM
2 | Oc1ccc(CCCc2ccc(O)cc2O)cc1 | > 164 µM
3 | CC(C)=CCc1cc(C(=O)/C=C/c2ccc(O)cc2)c(O)cc1O [BROUSSOCHALCONE B] | > 123 µM
4 | CC(C)=CCc1cc(C2CC(=O)c3c(O)cc(O)cc3O2)ccc1O (centres undefined) | 0.4 µM
5 | CC(C)=CCc1cc([C@H]2Oc3c(CC=C(C)C)c(O)cc(O)c3C(=O)[C@@H]2O)ccc1O | > 94.2 µM
6 | CC(C)=CCc1cc2cc(-c3cc(O)cc(O)c3)oc2cc1O [MORACIN N] | 31.1 µM
7 | CC(C)=CCc1cc(C(=O)/C=C/c2ccc(O)c(O)c2)c(O)cc1O [BROUSSOCHALCONE A] | > 118 µM
8 | O=c1ccc2c(o1)CCCC2 | > 266 µM
9 | CC(C)=CCc1cc([C@@H]2CCc3ccc(O)cc3O2)ccc1O | > 129 µM
10 | Oc1cc(O)cc(-c2cc3ccc(O)cc3o2)c1 [MORACIN M] | > 165 µM
11 | CC(C)=CCc1c(O)ccc2c1O[C@H](c1ccc(O)cc1O)CC2=O | 3.4 µM
12 | COc1cc(O)ccc1CCCc1ccc(O)cc1 [BROUSSONIN B] | > 155 µM
13 | O=C1c2c(O)cc(O)cc2O[C@H](c2ccc(O)cc2O)[C@H]1O [DIHYDROMORIN] | > 131 µM
14 | COc1ccc(CCCc2ccc(O)c(OC)c2)c(OC)c1 [BROUSSONIN F] | > 132 µM
15 | CC(C)=CCc1c(O)cc2oc(-c3ccc(O)c(O)c3)c(O)c(=O)c2c1O [GANCAONIN P] | > 108 µM
16 | O=C(/C=C/c1ccc(O)cc1O)c1ccc(O)cc1O | > 147 µM
17 | CC(C)=CCc1c(O)cc(O)cc1-c1cc2ccc(O)cc2o1 [DEMETHYLMORACIN I] | 31.1 µM

Row | Compound | IC50
18 | CC(C)(O)[C@@H]1Cc2cc3ccc(=O)oc3cc2O1 [MARMESIN] | > 162 µM
19 | CC(C)(O)C1Cc2c(ccc3c2O[C@H](c2ccc(O)cc2O)CC3=O)O1 (some centres undefined) | 0.1 µM
20 | COc1ccc(CCCc2ccc(OC)c(O)c2)c(O)c1 [BROUSSONIN E] | > 139 µM
21 | COc1cc(O)cc(-c2cc3ccc(O)cc3o2)c1CC=C(C)C [MORACIN I] | > 123 µM
22 | CC(C)=CCc1c(O)ccc(CCCc2ccc(O)cc2)c1O | > 128 µM
23 | O=C1c2c(O)cc(O)cc2O[C@H](c2ccc(O)cc2)[C@H]1O [DIHYDROKAEMPFEROL] | > 139 µM
24 | CC(C)=CCc1cc(-c2oc3cc(O)cc(O)c3c(=O)c2O)ccc1O [ISOLICOFLAVONOL] | 0.1 µM
25 | CC1(C)C[C@H](O)C[C@@]2(C)OC(=O)C=C12 [LOLIOLIDE] | > 204 µM
26 | CC1(C)C=Cc2c(O)cc(-c3cc4ccc(O)cc4o3)cc2O1 [MORACIN D] | > 130 µM
27 | COc1ccc(CCCc2ccc(O)cc2)c(O)c1 [BROUSSONIN A] | 30 µM
28 | COc1cc(O)ccc1CCCc1ccc(O)c(CC=C(C)C)c1 | > 123 µM
29 | Oc1ccc([C@@H]2CCc3ccc(O)cc3O2)cc1 | > 165 µM
30 | CC(C)=CCc1c(O)ccc(C(=O)/C=C/c2ccc(O)cc2)c1O [ISOBAVACHALCONE] | > 123 µM
31 | CC(C)=CCC/C(C)=C/Cc1c(O)cc2oc(-c3ccc(O)c(O)c3)c(O)c(=O)c2c1O | > 91.2 µM
32 | CC1=C[C@@H]2c3c(O)cc(-c4cc5ccc(O)cc5o4)cc3O[C@]3(c4ccc(O)cc4O)Oc4cc(O)ccc4[C@@H](C1)C23 (some centres undefined) [ALBANOL A] | 7.5 µM
33 | CC(C)=CCc1cc2c(cc1O)O[C@H](c1ccc(O)cc1)CC2=O [BAVACHIN] | > 123 µM
34 | CC(C)=CCc1cc(-c2oc3c(CC=C(C)C)c(O)cc(O)c3c(=O)c2O)ccc1O [BROUSSOFLAVONOL F] | 9.7 µM
